According to patent US9808473B2, “Preparation and use of 3-pyridyl substituted-6,6-difluoro bicyclic himbacine derivatives as par-1 receptor antagonists” (Merck Sharp & Dohme Corp., priority 2013, dated 2017):

Key:
PAR-1 receptor = target: T1, PAR-1 receptor (Homo sapiens, UniProt P25116); test: PAR-1 FLIPR Assay; assay type: cell-based; conditions: HEK 293 cells, calcium signal after PAR-1 selective receptor-activating peptide at EC80
T1 construct: endogenous in cells; host or cells: HEK 293
T1 sequence (P25116 22-425): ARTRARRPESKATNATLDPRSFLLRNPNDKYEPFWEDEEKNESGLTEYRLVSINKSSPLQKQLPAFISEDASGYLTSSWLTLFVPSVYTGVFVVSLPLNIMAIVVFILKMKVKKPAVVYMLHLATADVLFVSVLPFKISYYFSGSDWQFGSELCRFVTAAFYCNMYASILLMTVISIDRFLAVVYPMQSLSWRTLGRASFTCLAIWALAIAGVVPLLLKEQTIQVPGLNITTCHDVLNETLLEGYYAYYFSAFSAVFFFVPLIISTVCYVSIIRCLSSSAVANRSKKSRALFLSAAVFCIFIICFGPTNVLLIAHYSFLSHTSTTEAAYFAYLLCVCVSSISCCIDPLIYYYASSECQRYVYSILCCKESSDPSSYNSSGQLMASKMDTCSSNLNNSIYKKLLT
Protocol: This assay measures the potency of the inventive compounds as PAR-1 receptor antagonists.
Frozen HEK 293 Cells were plated in 384-well PDL coated plates at 12000 cells/well in 50 uL of DMEM media containing 10% FBS, pen/strep/L-Glutamine and non-essential amino acids, incubated overnight at 37° C./5% CO2. Media was then removed from the cells, incubated with 33 uL of Calcium-5 dye in assay buffer (Hank's buffer containing 20 mM HEPES, 0.04% Chaps and 2.5 mM Probenecid) for 60 minutes at 37° C. 2 uL of varying concentrations of compound in 40% DMSO in assay buffer (final DMSO concentration is 2.3%) were then added to the cells and incubated at 25° C. for 30 minutes. The plates were added to the FLIPR Tetra®, the device added 5 uL of PAR-1 selective receptor-activating peptide (sequence Ala-parafluoroPhe-Arg-Cha-Cit-Try-Nh2, prepared in water) at a concentration equal to the effective concentration that achieved 80% activation of signaling on the day of the experiment. The range of peptide was from 1.5-3 μM. The final volume was 40 uL/well, with 2% DMSO. The FLIPR was read at an excitation wavelength of 480 nm and an emission wavelength of 535 nm, and performed 60 scans over a 1-2 min reading time. The data were analyzed by taking the peak signal over a portion of the range of the 60 scans and dividing this signal by the minimum signal for that same range. The data were expressed as percent inhibition of the maximum divided by the minimum signal achieved at 80% activation produced by the PAR1 activating peptide on the test day. The compounds of Examples 1-9 were tested in the assay described above and the data collected for these compounds is provided.

[1] = target: CYP3A4 (column heading prints CYP2D6; method and table sentence say CYP3A4) (Homo sapiens, UniProt P08684); test: CYP MUX (3A4) RI; assay type: in vitro ADME; conditions: pH 7.4, probe testosterone (75 µM); human liver microsomes; method describes testosterone as substrate for 3A4
CYP3A4 (column heading prints CYP2D6; method and table sentence say CYP3A4), sequence (P08684 2-503): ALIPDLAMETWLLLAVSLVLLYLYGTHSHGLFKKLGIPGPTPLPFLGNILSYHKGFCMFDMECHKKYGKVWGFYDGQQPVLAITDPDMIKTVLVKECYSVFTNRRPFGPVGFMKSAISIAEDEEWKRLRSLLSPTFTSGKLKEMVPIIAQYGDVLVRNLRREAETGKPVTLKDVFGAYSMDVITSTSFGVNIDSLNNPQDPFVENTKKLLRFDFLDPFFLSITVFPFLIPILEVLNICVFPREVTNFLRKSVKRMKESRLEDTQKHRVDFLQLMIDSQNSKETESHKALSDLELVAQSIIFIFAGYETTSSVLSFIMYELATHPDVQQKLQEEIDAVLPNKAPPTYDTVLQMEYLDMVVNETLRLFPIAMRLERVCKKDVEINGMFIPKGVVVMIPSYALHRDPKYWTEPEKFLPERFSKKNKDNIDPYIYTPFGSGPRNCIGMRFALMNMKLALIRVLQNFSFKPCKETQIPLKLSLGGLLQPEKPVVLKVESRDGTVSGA
Text: This assay measures inhibition of CYP3A4 by a compound. Cytochromes P450 (CYPs) constitute a superfamily of heme-containing enzymes that recognize and metabolize a large number structurally diverse xenobiotics in the human body. CYP3A4 constitutes the largest portion of CYP enzymes in the liver that accounts for the metabolism of almost 50% of all drugs. This assay is used to evaluate the potential of a compound for developing DDIs. (Clarke, S. E.; Jones B. C. Drug-Drug Interactions, New York: Marcel Dekker; 2002. pp. 53-88).
Compound dilutions and assay-ready plates were prepared on a TTP Labtech Mosquito® HTS. Assay conduction was fully automated on a customized Screening Platform from Caliper (now PerkinElmer) containing a Mitsubishi robotic plate handler, Liconic incubators, a Caliper Zephyr® liquid handling workstation equipped with temperature-controlled deck positions, a Biotek MultiFlo™ dispenser and an Agilent PlateLoc heat sealer. Assay plates were Corning Costar® 384 well PP plates. High throughput mass spectrometric readout was performed on a RapidFire® 300 system coupled to an AB Sciex API 4000™ triple quadrupole device. CYP isoform 3A4 was incubated in a separate reaction of 50 μL final volume. 25 μL of HLM (human liver microsomes, BD UltraPool™ 150, 0.25 mg/mL final concentration) and the respective substrate, testosterone (75 μM) for 3A4, in potassium phosphate buffer (100 mM, pH=7.4) were added to 250 nL of stamped compound solution (10 mM in DMSO). The reactions were started upon addition of 25 μL of a co-factor solution containing magnesium chloride (3.3 mM), glucose-6-phosphate (3.3 mM), glucose-6-phosphate dehydrogenase (1.4 units) and NADP (1 mM) in potassium phosphate buffer (100 mM, pH=7.4) and incubated on deck at 37° C. for 10 min. 8 μL of each reaction were transferred to the same readout plated filled with 48 μL of stop solution containing internal standards (concentration in final readout plate), 6-hydroxytestosterone-D7 (0.5 μM), 4′-hydroxydiclofenac-D4′-(0.2 μM), and dextrorphan-D3 (0.01 μM), in acetonitrile with 0.5% formic acid. After heat sealing, plates were stored at −20° C. for at least 30 min, centrifuged and subjected directly to RapidFire®/MS analysis.
(§1) Table 4 summarizes the selectivity of the inventive compounds in the CYP3A4 assay and the ability of the inventive compound to inhibit hERG.

hERG channel = target: T2, hERG channel (Homo sapiens, UniProt Q12809); test: MK-499 Filter Binding Assay; conditions: [35S]MK-0499 radioligand competition, membranes of HEK293 cells expressing hERG, read-out: MK499 IC50; for IC50 at 90 min: human, pH 7.4, probe [35S]MK-0499 radioligand
T2 construct: expressed in transfected cells; host or cells: HEK293, stably transfected; membranes
T2 sequence (Q12809 whole entry): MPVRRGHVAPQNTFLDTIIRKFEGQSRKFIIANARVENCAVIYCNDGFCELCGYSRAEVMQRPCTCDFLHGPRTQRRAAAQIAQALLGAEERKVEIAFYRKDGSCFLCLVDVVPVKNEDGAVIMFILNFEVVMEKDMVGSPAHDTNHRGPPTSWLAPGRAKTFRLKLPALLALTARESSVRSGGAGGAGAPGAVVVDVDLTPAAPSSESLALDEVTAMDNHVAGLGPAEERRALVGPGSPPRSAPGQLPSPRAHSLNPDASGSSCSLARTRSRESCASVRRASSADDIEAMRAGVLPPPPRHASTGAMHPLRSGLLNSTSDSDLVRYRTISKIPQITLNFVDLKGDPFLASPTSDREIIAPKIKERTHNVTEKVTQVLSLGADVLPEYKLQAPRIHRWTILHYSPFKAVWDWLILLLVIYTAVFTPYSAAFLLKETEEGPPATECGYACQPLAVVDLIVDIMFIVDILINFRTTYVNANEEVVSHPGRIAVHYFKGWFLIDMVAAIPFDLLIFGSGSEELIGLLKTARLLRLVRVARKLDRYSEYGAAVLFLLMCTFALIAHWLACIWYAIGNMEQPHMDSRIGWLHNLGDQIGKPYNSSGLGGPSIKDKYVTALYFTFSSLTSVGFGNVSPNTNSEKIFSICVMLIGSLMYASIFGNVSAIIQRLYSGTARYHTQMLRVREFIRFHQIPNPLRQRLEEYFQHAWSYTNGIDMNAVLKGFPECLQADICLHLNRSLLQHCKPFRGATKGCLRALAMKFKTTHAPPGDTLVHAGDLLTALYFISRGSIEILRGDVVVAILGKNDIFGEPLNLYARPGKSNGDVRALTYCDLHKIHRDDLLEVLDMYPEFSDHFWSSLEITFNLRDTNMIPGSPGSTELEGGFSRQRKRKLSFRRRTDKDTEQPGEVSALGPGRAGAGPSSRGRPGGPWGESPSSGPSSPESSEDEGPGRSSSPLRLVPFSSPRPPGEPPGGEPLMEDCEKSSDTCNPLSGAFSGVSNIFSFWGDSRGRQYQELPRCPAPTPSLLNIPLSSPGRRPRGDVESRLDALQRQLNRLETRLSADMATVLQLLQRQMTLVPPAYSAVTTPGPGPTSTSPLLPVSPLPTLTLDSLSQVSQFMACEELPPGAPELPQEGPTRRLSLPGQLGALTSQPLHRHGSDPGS
Text: MK-499 Filter Binding Assay
This assay is used to evaluate the potential of a compound to cause drug-induced log QT syndrome.
Drug cardiac arrhythmia is an important safety concern for pharmaceutical development and health regulatory authorities. Blockade of heterologously-expressed human ether-à-go-go gene (hERG) channel prolongs the duration of the cardiac action potential leading to a long QT interval that can lead to sudden death (De Ponti, F.; et at Drug Safety 2002, 25, pp. 263-286). It is important to have compounds devoid of hERG channel activity as measured by an in vitro assay. Affinity of compounds for the hERG channel was evaluated in radioligand competition experiments using HEK293 cells that were stably transfected with the hERG channel and radiolabeled ligand, MK-499 a potent antiarrhythmic. This assay correlates well with QT prolongation in vivo (Jamieson, C.; et al., J. Med. Chem. 2006, 49, pp. 5029-5046).
25 μL Target membranes (in assay buffer: 10 mM HEPES/NaOH, pH 7.4, 70 mM NaCl, 60 mM KCl, 2 mM MgCl2, 1 mM CaCl2) purified from a HEK293 cell line expressing the human Ether-à-go-go Related Gene (hERG) ion channel, 1 μL test compound in 10 mM DMSO and 25 μL (6,000 cpm/well; in assay buffer) [35S]MK-0499 radioligand (Merck/Perkin Elmer) are added to the assay plate (Axygen; 384 Deep well “Diamond Plate”, clear). After incubation of the binding reaction at room temperature (RT) for 90 min 50 μL of the assay were transferred to a MultiscreenHTS 384 FC filter plate (Millipore), which has been pre-wetted with 20 μL 0.01% PEI/0.01% Triton X-100 for at least 30 min at RT. Then, 30 μL it wash buffer (10 mM HEPES/NaOH, pH 7.4, 130 mM NaCl, 2 mM MgCl2, 1 mM CaCl2) equilibrated to RT were added to each well of the assay plate and subsequently transferred to the filter plate. The assay mixture was aspirated through the filter plate using a Biotek ELx405™ washer. The filter plate was washed twice with 100 μl cold wash buffer per wash and well and then dried in a drying oven for at least 75 min at 55° C. Afterwards, the bottom of each filter plate was heat sealed with a solid foil seal, then 10 μL of Microscint™ 0 (Perkin Elmer) were added to each well of the filter plate and finally, the top of each filter plate was sealed with a clear seal. The plates were stored for at least 20 min in a MicroBeta2 reader (Perkin Elmer) before they are counted (60 sec/well).
as §1

SMILES	IC50 (PAR-1 receptor) [µM]	IC50 at 10 min [1] [µM]	IC50 at 90 min (hERG channel) [µM]	IC50 (hERG channel) [µM]
C[C@H]1OC(=O)[C@]2(O)CC(F)(F)[C@@H](C)[C@H](/C=C/c3ccc(-c4cccnc4F)cn3)[C@H]12 [Example 5]	0.0162	≥ 50	≥ 60	–
C[C@H]1OC(=O)[C@]2(O)CC(F)(F)[C@@H](C)[C@H](/C=C/c3ccc(-c4cccnc4C4CC4)cn3)[C@H]12 [Example 6, (3R,3aR,4R,5S,7aS)-4-((E)-2-(2′-cyclopropyl-[3,3′-bipyridin]-6-yl)vinyl)-6,6-difluoro-7a-hydroxy-3,5-dimethylhexahydroisobenzofuran-1(3H)-one]	0.0104	≥ 50	≥ 60	–
C[C@H]1OC(=O)[C@]2(O)CC(F)(F)[C@@H](C)[C@H](/C=C/c3ccc(-c4cccnc4N4CC(F)(F)C4)cn3)[C@H]12 [Example 9, (3R,3aR,4R,5S,7aS)-4-((E)-2-(2′-(3,3-difluoroazetidin-1-yl)-[3,3′-bipyridin]-6-yl)vinyl)-6,6-difluoro-7a-hydroxy-3,5-dimethylhexahydroisobenzofuran-1(3H)-one]	0.0924	≥ 50	≥ 60	–
Cc1ccc(-c2ncccc2-c2ccc(/C=C/[C@@H]3[C@@H]4[C@@H](C)OC(=O)[C@]4(O)CC(F)(F)[C@H]3C)nc2)s1 [Example 7, (3R,3aR,4R,5S,7aS)-6,6-difluoro-7a-hydroxy-3,5-dimethyl-4-((E)-2-(2′-(5-methylthiophen-2-yl)-[3,3′-bipyridin]-6-yl)vinyl)hexahydroisobenzofuran-1(3H)-one]	0.0152	≥ 50	–	20.8
C[C@H]1OC(=O)[C@]2(O)CC(F)(F)[C@@H](C)[C@H](/C=C/c3ccc(-c4cccnc4-c4cncn4C)cn3)[C@H]12 [Example 8, (3R,3aR,4R,5S,7aS)-6,6-difIuoro-7a-hydroxy-3,5-dimethyl-4-((E)-2-(2′-(l-methyl-1H-imidazol-5-yl)-[3,3′-bipyridin]-6-yl)vinyl)hexahydroisobenzofuran-1(3H)-one]	–	≥ 50	≥ 60	–

More lines, in order of falling IC50 (PAR-1 receptor), values ahead:

IC50 (PAR-1 receptor) [µM]	IC50 at 10 min [1] [µM]	SMILES	IC50 at 90 min (hERG channel) [µM]	IC50 (hERG channel) [µM]
0.009	28.5	C[C@H]1OC(=O)[C@]2(O)CC(F)(F)[C@@H](C)[C@H](/C=C/c3ccc(-c4cccnc4-c4ccccc4)cn3)[C@H]12 [Example 2, (3R,3aR,4R,5S,7aS)-6,6-difluoro-7a-hydroxy-3,5-dimethyl-4-((E)-2-(2′-phenyl-[3,3′-bipyridin]-6-yl)vinyl)hexahydroisobenzofuran-1(3H)-one]	–	39.8
0.0078	≥ 50	C[C@H]1OC(=O)[C@]2(O)CC(F)(F)[C@@H](C)[C@H](/C=C/c3ccc(-c4cccnc4Cl)cn3)[C@H]12 [Example 4, (3R,3aR,4R,5S,7aS)-4-((E)-2-(2′-chloro-[3,3′-bipyridin]-6-yl)vinyl)-6,6-difluoro-7a-hydroxy-3,5-dimethylhexahydroisobenzofuran-1(3H)-one]	–	18.7
0.0059	≥ 50	C[C@H]1OC(=O)[C@]2(O)CC(F)(F)[C@@H](C)[C@H](/C=C/c3ccc(-c4cccnc4C#N)cn3)[C@H]12 [Example 1, 6′-((E)-2-((3R,3aR,4R,5S,7aS)-6,6-difluoro-7a-hydroxy-3,5-dimethyl-1-oxooctahydroisobenzofuran-4-yl)vinyl)-[3,3′-bipyridine]-2-carbonitrile]	≥ 60	–
0.0054	≥ 50	COc1ncccc1-c1ccc(/C=C/[C@@H]2[C@@H]3[C@@H](C)OC(=O)[C@]3(O)CC(F)(F)[C@H]2C)nc1 [Example 3, (3R,3aR,4R,5S,7aS)-6,6-difluoro-7a-hydroxy-4-((E)-2-(2′-methoxy-[3,3′-bipyridin]-6-yl)vinyl)-3,5-dimethylhexahydroisobenzofuran-1(3H)-one]	≥ 60	–
